Data reported in PubChem BioAssay AID2060500 (Molecular Pharmacology Branch, DTP, NCI, 2025).
pIC50: −log10 of the molar value.

System: 596521-263-R-J1-PDC complex spheroids, viability % of control
Test: Anticancer human tumor 596521-263-R-J1-PDC patient-derived soft tissue sarcoma cell line growth inhibition [GQUAD]
Settings: for pIC50: curve of first compound; for viability, T/C: stronger effect = lower value
From the text: DNA G-quadruplex Stabilizer Agents in Combinations in Complex Spheroids
A high-throughput screen of multi-cell type tumor spheroids was designed to identify active combinations of DNA G-quadruplex stabilizer agents and targeted small molecules. Complex spheroids include a stromal component modeled by human endothelial cells (HUVEC) and fibroblasts modeled by human mesenchymal stem cells (MSCs). The concentration ranges selected for each drug and investigational agent were based upon clinically achievable concentrations if the clinical Cmax of the agent was known.
Compounds. The drugs and investigational agents: pidnarulex (CX-5461; NSC782164), APTO-253 (NSC789042), BRACO-19 (NSC847499), peposertib (NSC802822), ceralasertib (NSC780249), elimusertib (NSC800525), camonsertib (NSC841442), AZD-1390 (NSC803789), olaparib (NSC753686), talazoparib (NSC767125), ART-558 (NSC835418), sotorasib (NSC818433), MRTX-1133 (NSC836407), SN-38 (NSC673596), topotecan (NSC609699), etoposide (NSC141540), doxorubicin (NSC123127), gemcitabine (NSC613327), 5-fluorouracil (NSC19893), paclitaxel (NSC125973), vemurafenib (NSC761431), panobinostat (NSC761190), R-306465 (JNJ-16241199; NSC773264), adavosertib (NSC754352), TP-3654 (NSC805149), carboplatin (NSC241240), KSQ-4279 (NSC840948), and staurosporine (NSC755774) were obtained from the National Cancer Institute (NCI) Developmental Therapeutics Program Chemical Repository (34). The FDA-approved anticancer drug set is available from the NCI Developmental Therapeutics Program. […] The stock solutions were prepared in dimethyl sulfoxide (DMSO, Sigma-Aldrich, St. Louis, MO, cat. D2650) at 800-fold the tested concentration and stored at -70 degrees C prior to their use. All drugs and investigational agents were tested over a range starting from a high concentration at or near the clinical Cmax and decreasing in half-log increments. If the clinical Cmax for an agent had not been determined, the highest concentration tested was 10 microM.
2.3 Cell Culture. All cells were maintained in an incubator at 37 degrees C and 5% CO2 with 95% humidity. The PDC lines were cultured according to standard operating procedures established by the NCI PDMR. All PDCs were thawed and cultured in Matrigel-coated flasks prepared with a working solution of 1X Ham's F-12 nutrient mix, without supplementation (Invitrogen, cat. 11765054), 100 U/mL penicillin-streptomycin (Invitrogen, cat. 15140122), and 2.5% Matrigel (Corning Inc., cat. 354248) for the first three passages. The 857933-349-R-J2-PDC line was cultured in 6C/Colon 1B media, which includes advanced DMEM/F-12 (Thermo Fisher Scientific, cat. 12634028), 10 mM HEPES (Thermo Fisher Scientific, cat. 15630080), 1X GlutaMAX supplement (Thermo Fisher Scientific, cat. 35050061), 0.1 mg/mL primocin (InvivoGen, cat. ant-pm-2), 10% defined fetal bovine serum, heat inactivated (HyClone Laboratories Inc., cat. SH30070.03HI), 50% L-WRN conditioned media (ATCC, cat. CRL-3276), 1.25 mM N-Acetyl-L-cysteine (Sigma-Aldrich, cat. A9165), 10 mM nicotinamide (Sigma-Aldrich, cat. N0636), 1X B-27 supplement (Thermo Fisher Scientific, cat. 17504044), 1X N-2 supplement (Thermo Fisher Scientific, cat. 17502048), 10 microM Y-27632 dihydrochloride (Tocris Bioscience, cat. 1254), and 50 ng/mL human EGF recombinant protein (Thermo Fisher Scientific, cat. PHG0311). The 485176-168-R4-J1-PDC line was cultured in Panc media, which includes all 6C/Colon 1B media components plus 100 ng/mL human FGF-10 (Thermo Fisher Scientific, cat. 100-26), 500 nM SB-431542 (Selleckchem, cat. S1067), and gastrin (Tocris, cat. 3006).
[…]

[1] = second compound 0.0316 µM, first compound 0.0316 µM
[2] = second compound 0.0316 µM, first compound 0.316 µM
[3] = second compound 0.1 µM, first compound 0.0316 µM
[4] = second compound 0.1 µM, first compound 0.316 µM
[5] = second compound 0.316 µM, first compound 0.0316 µM
[6] = second compound 0.316 µM, first compound 0.316 µM
[7] = second compound 1 µM, first compound 0.0316 µM
[8] = second compound 1 µM, first compound 0.316 µM
[9] = second compound 3.16 µM, first compound 0.0316 µM
[10] = second compound 3.16 µM, first compound 0.316 µM
[11] = second compound 10 µM, first compound 0.0316 µM
[12] = second compound 10 µM, first compound 0.316 µM
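Further: spheroids exposed to drugs for 7 days before viability reading.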

`Cc1[nH]c2ccccc2c1CCNCc1ccc(/C=C/C(=O)NO)cc1` + CN(C)c1ccc(Nc2c3ccc(NC(=O)CCN4CCCC4)cc3nc3cc(NC(=O)CCN4CCCC4)ccc23)cc1 showed a pIC50 (second compound 0.0316 µM) of 7.33, a pIC50 (second compound 0.1 µM) of 7.37 and a pIC50 (second compound 0.316 µM) of 7.50. It also gave a pIC50 (second compound 1 µM) of 7.43, a pIC50 (second compound 3.16 µM) of 7.60 and a pIC50 (second compound 10 µM) of 7.87. For the same compound, the viability, T/C (second compound 0.0316 µM, first compound 0.000999 µM) was 102%, the viability, T/C (second compound 0.0316 µM, first compound 0.00316 µM) was 89.2% and the viability, T/C (second compound 0.0316 µM, first compound 0.00999 µM) was 79.8%. For the same compound, the viability, T/C [1] was 58.1%, the viability, T/C (second compound 0.0316 µM, first compound 0.0999 µM) was 32.9% and the viability, T/C [2] was 1.76%. It also gave a viability, T/C (second compound 0.1 µM, first compound 0.000999 µM) of 94.7%, a viability, T/C (second compound 0.1 µM, first compound 0.00316 µM) of 94.9% and a viability, T/C (second compound 0.1 µM, first compound 0.00999 µM) of 78.1%. The viability, T/C [3] was 58.4%, the viability, T/C (second compound 0.1 µM, first compound 0.0999 µM) was 27.4% and the viability, T/C [4] was 2.91%. It also gave a viability, T/C (second compound 0.316 µM, first compound 0.000999 µM) of 102%, a viability, T/C (second compound 0.316 µM, first compound 0.00316 µM) of 81.3% and a viability, T/C (second compound 0.316 µM, first compound 0.00999 µM) of 77%. It also gave a viability, T/C [5] of 50.4%, a viability, T/C (second compound 0.316 µM, first compound 0.0999 µM) of 22.8% and a viability, T/C [6] of 1.67%. For the same compound, the viability, T/C (second compound 1 µM, first compound 0.000999 µM) was 90.6%, the viability, T/C (second compound 1 µM, first compound 0.00316 µM) was 88.3% and the viability, T/C (second compound 1 µM, first compound 0.00999 µM) was 75.6%. It also gave a viability, T/C [7] of 54.8%, a viability, T/C (second compound 1 µM, first compound 0.0999 µM) of 23.3% and a viability, T/C [8] of 1.36%. It also gave a viability, T/C (second compound 3.16 µM, first compound 0.000999 µM) of 78.6%, a viability, T/C (second compound 3.16 µM, first compound 0.00316 µM) of 82.4% and a viability, T/C (second compound 3.16 µM, first compound 0.00999 µM) of 64.7%. The viability, T/C [9] was 46.2%, the viability, T/C (second compound 3.16 µM, first compound 0.0999 µM) was 18.4% and the viability, T/C [10] was 1.06%. The viability, T/C (second compound 10 µM, first compound 0.000999 µM) was 62.2%, the viability, T/C (second compound 10 µM, first compound 0.00316 µM) was 53.7% and the viability, T/C (second compound 10 µM, first compound 0.00999 µM) was 57.4%. It also gave a viability, T/C [11] of 36.4%, a viability, T/C (second compound 10 µM, first compound 0.0999 µM) of 13.3% and a viability, T/C [12] of 0.5%.
For `O=c1[nH]cc(F)c(=O)[nH]1` + Cc1[nH]c2ccc(F)cc2c1-c1nc2c3cccnc3c3ncccc3c2[nH]1, the pIC50 (second compound 0.0316 µM) was under 5.00, the pIC50 (second compound 0.1 µM) was under 5.00 and the pIC50 (second compound 0.316 µM) was under 5.00. The pIC50 (second compound 1 µM) was under 5.00, the pIC50 (second compound 3.16 µM) was under 5.00 and the pIC50 (second compound 10 µM) was under 5.00. The viability, T/C [1] was 98.4%, the viability, T/C (second compound 0.0316 µM, first compound 0.1 µM) was 105% and the viability, T/C [2] was 100%. It also gave a viability, T/C (second compound 0.0316 µM, first compound 1 µM) of 101%, a viability, T/C (second compound 0.0316 µM, first compound 3.16 µM) of 101% and a viability, T/C (second compound 0.0316 µM, first compound 10 µM) of 98.3%. The viability, T/C [3] was 100%, the viability, T/C (second compound 0.1 µM, first compound 0.1 µM) was 101% and the viability, T/C [4] was 101%. It also gave a viability, T/C (second compound 0.1 µM, first compound 1 µM) of 105%, a viability, T/C (second compound 0.1 µM, first compound 3.16 µM) of 94.9% and a viability, T/C (second compound 0.1 µM, first compound 10 µM) of 95.1%. For the same compound, the viability, T/C [5] was 90.8%, the viability, T/C (second compound 0.316 µM, first compound 0.1 µM) was 104% and the viability, T/C [6] was 106%. The viability, T/C (second compound 0.316 µM, first compound 1 µM) was 113%, the viability, T/C (second compound 0.316 µM, first compound 3.16 µM) was 118% and the viability, T/C (second compound 0.316 µM, first compound 10 µM) was 81.8%. For the same compound, the viability, T/C [7] was 100%, the viability, T/C (second compound 1 µM, first compound 0.1 µM) was 96.6% and the viability, T/C [8] was 100%. It also gave a viability, T/C (second compound 1 µM, first compound 1 µM) of 88.9%, a viability, T/C (second compound 1 µM, first compound 3.16 µM) of 93.9% and a viability, T/C (second compound 1 µM, first compound 10 µM) of 86.6%. The viability, T/C [9] was 96%, the viability, T/C (second compound 3.16 µM, first compound 0.1 µM) was 95.4% and the viability, T/C [10] was 88.5%. The viability, T/C (second compound 3.16 µM, first compound 1 µM) was 86.7%, the viability, T/C (second compound 3.16 µM, first compound 3.16 µM) was 89.1% and the viability, T/C (second compound 3.16 µM, first compound 10 µM) was 82.4%. For the same compound, the viability, T/C [11] was 63.3%, the viability, T/C (second compound 10 µM, first compound 0.1 µM) was 70.6% and the viability, T/C [12] was 80.7%. The viability, T/C (second compound 10 µM, first compound 1 µM) was 77.5%, the viability, T/C (second compound 10 µM, first compound 3.16 µM) was 76.4% and the viability, T/C (second compound 10 µM, first compound 10 µM) was 72.4%.
